IC50 data for seven molecules are collected here from BindingDB's records for doi:10.1021/jm9911229 (University of Ferrara, 2000).

Structures can show the parent of a compound that is named as a salt.

The assay in a line: Tested for 50% inhibition of generation of Human Ha-ras polymerase chain reaction(PCR) products.
A word on the IC50: it is the concentration at which inhibition is half-maximal. Higher therefore signals weaker potency in that assay. Molecule `Cn1cc(NC(=O)c2cc(NC(=O)c3cc(NC(=O)c4cc5cc(N(CCCl)CCCl)ccc5n4C)cn3C)cn2C)cc1C(=O)NCCC(=N)N` [5-[Bis-(2-chloro-ethyl)-amino]-1-methyl-1H-indole-2-carboxylic acid (5-{5-[5-(2-carbamimidoyl-ethylcarbamoyl)-1-methyl-1H-pyrrol-3-ylcarbamoyl]-1-methyl-1H-pyrrol-3-ylcarbamoyl}-1-methyl-1H-pyrrol-3-yl)-amide; hydrochloride] came in with an IC50 of 20 nM. In the case of `Cn1cc(NC(=O)c2cc(NC(=O)c3cc(NC(=O)c4cc5cc(N(CCCl)CCCl)ccc5[nH]4)cn3C)cn2C)cc1C(=O)NCCC(=N)N` [5-[Bis-(2-chloro-ethyl)-amino]-1H-indole-2-carboxylic acid (5-{5-[5-(2-carbamimidoyl-ethylcarbamoyl)-1-methyl-1H-pyrrol-3-ylcarbamoyl]-1-methyl-1H-pyrrol-3-ylcarbamoyl}-1-methyl-1H-pyrrol-3-yl)-amide; hydrochloride] it was 20 nM. For `Cn1cc(NC(=O)c2cc(NC(=O)c3cc(NC(=O)c4cc5cc(N(CCCl)CCCl)ccc5o4)cn3C)cn2C)cc1C(=O)NCCC(=N)N` [5-[Bis-(2-chloro-ethyl)-amino]-benzofuran-2-carboxylic acid (5-{5-[5-(2-carbamimidoyl-ethylcarbamoyl)-1-methyl-1H-pyrrol-3-ylcarbamoyl]-1-methyl-1H-pyrrol-3-ylcarbamoyl}-1-methyl-1H-pyrrol-3-yl)-amide; hydrochloride], the IC50 was 15 nM. As for `Cn1cc(NC(=O)c2cc(NC(=O)c3cc(NC(=O)c4cc5cc(NC(=O)c6ccc(N(CCCl)CCCl)cc6)ccc5n4C)cn3C)cn2C)cc1C(=O)NCCC(=N)N` [5-{4-[Bis-(2-chloro-ethyl)-amino]-benzoylamino}-1-methyl-1H-indole-2-carboxylic acid (5-{5-[5-(2-carbamimidoyl-ethylcarbamoyl)-1-methyl-1H-pyrrol-3-ylcarbamoyl]-1-methyl-1H-pyrrol-3-ylcarbamoyl}-1-methyl-1H-pyrrol-3-yl)-amide; hydrochloride], it took 15 nM to reach half-maximal inhibition (IC50). Turning to `Cn1cc(NC(=O)c2cc(NC(=O)c3cc(NC(=O)c4nc5ccc(NC(=O)c6ccc(N(CCCl)CCCl)cc6)cc5[nH]4)cn3C)cn2C)cc1C(=O)NCCC(=N)N` [5-{4-[Bis-(2-chloro-ethyl)-amino]-benzoylamino}-1H-benzoimidazole-2-carboxylic acid (5-{5-[5-(2-carbamimidoyl-ethylcarbamoyl)-1-methyl-1H-pyrrol-3-ylcarbamoyl]-1-methyl-1H-pyrrol-3-ylcarbamoyl}-1-methyl-1H-pyrrol-3-yl)-amide; hydrochloride], the IC50 was determined as 15 nM. With `Cn1cc(NC(=O)c2cc(NC(=O)c3cc(NC(=O)c4cc5cc(NC(=O)c6ccc(N(CCCl)CCCl)cc6)ccc5[nH]4)cn3C)cn2C)cc1C(=O)NCCC(=N)N` [5-{4-[Bis-(2-chloro-ethyl)-amino]-benzoylamino}-1H-indole-2-carboxylic acid (5-{5-[5-(2-carbamimidoyl-ethylcarbamoyl)-1-methyl-1H-pyrrol-3-ylcarbamoyl]-1-methyl-1H-pyrrol-3-ylcarbamoyl}-1-methyl-1H-pyrrol-3-yl)-amide; hydrochloride], 15 nM corresponded to half-maximal inhibition (IC50).

In turn, `Cn1cc(NC(=O)c2cc(NC(=O)c3cc(NC(=O)c4cc5cc(NC(=O)c6ccc(N(CCCl)CCCl)cc6)ccc5o4)cn3C)cn2C)cc1C(=O)NCCC(=N)N` [5-{4-[Bis-(2-chloro-ethyl)-amino]-benzoylamino}-benzofuran-2-carboxylic acid (5-{5-[5-(2-carbamimidoyl-ethylcarbamoyl)-1-methyl-1H-pyrrol-3-ylcarbamoyl]-1-methyl-1H-pyrrol-3-ylcarbamoyl}-1-methyl-1H-pyrrol-3-yl)-amide; hydrochloride] gave an IC50 of 15 nM.
